Experimental data reported in patent US6451576B1, “Sesquiterpene synthases from grand fir (Abies grandis), and methods of use” (Washington State University Research Foundation, priority 1998, dated 2002).

Legend:
[1] = system: insect larvae; settings: present in paper made from trees of the genus Abies; cited from earlier work
[2] = system: partially purified inducible sesquiterpene synthases; experiment: Sesquiterpene synthase assay with partially purified extract of wounded grand fir stems; format: biochemical, Abies grandis; settings: partially purified inducible sesquiterpene synthases from wounded stems; read-out: Km value for [1-3H]farnesyl diphosphate
From the text: Grand fir saplings in active growth were used as the enzyme source for determination of constitutive terpenoid synthases and of terpenoid synthases which had been induced in wounded stems by a standard wounding protocol (Funk, C., et al., (1994) Plant Physiol. 106, 999-1005). Stems from control saplings and saplings eight days after wounding (usually ten saplings) were harvested by removing the top and lateral growth, and cutting at about 5 cm from the base. The stems were chopped into 5-7 cm segments, frozen in liquid N2 and, following removal of any needles, were ground to a powder in a liquid N2-chilled No. 1 Wiley mill. The frozen powder was added to chilled extraction buffer (5 ml/g fresh tissue weight) consisting of 10 mM dibasic potassium phosphate and 1.8 mM monobasic potassium phosphate (pH 7.3), 140 mM NaCl, 20 mM β-mercaptoethanol, 10 mM MgCl2, 5 mM MnCl2, 10% (v/v) glycerol and 1% (w/v) each of polyvinylpyrrolidone (Mr 40,000) and polyvinylpolypyrrolidone. […]
Liquid scintillation counting was performed in 10 ml toluene:ethanol (7:3, v/v) containing 0.4% (w/v) Omnifluor (DuPont-NEN) at a ^3H counting efficiency of 43%. Protein concentrations were determined by the method of Bradford (Bradford, M. M. (1976) Anal. Biochem. 72, 248-254) using the Bio-Rad reagent and bovine serum albumin as standard. […]

Km [2] [µM] | SMILES | effect on maturation of insect larvae [1]
 | COC(=O)C1=CC[C@H]([C@H](C)CC(=O)CC(C)C)CC1 [Juvabione] | inhibits maturation of insect larvae
~0.4 | CC(C)=CCC/C(C)=C/CC/C(C)=C/CO[P@@](=O)(O)OP(=O)(O)O [[1-^3H]farnesyl diphosphate] | 
